# Test system: RAW-Blue cells
# Test: NF-κB transcriptional response in RAW-Blue reporter cells
# Assay type: cell-based, mouse
# Details: 1 µM, 18 h, with or without NOD2 antagonist SG84 10 µM
# Description: Given that cells of the monocyte-macrophage lineage are among the primary responders to NOD2 stimuli,[28] we also examined the effect of 40 on the NF-κB transcriptional response in RAW-Blue reporter cells. These cells, which, similarly to the HEK-Blue cells described above, stably express an NF-κB-inducible SEAP reporter gene, are derived from RAW264.7 mouse macrophages, which in addition to NOD2 also express NOD1 and most Toll-like receptors (TLRs).
# Figure S4. NF-kB transcriptional response in the RAW-Blue mouse macrophage reporter cell line. […] Statistical significance was determined by one-way ANOVA followed by Bonferroni’s multiple comparisons test; ***, p < 0.001 versus vehicle-treated control; ###, p < 0.001 versus MDP, 40, or LPS alone; ns, not significant. […]
# RAW-Blue cells were seeded (100,000 cells/well) in 96 -well plates in 200 µL growth medium (without Normocin and Zeocin) and treated with MDP (1 µM) or 40 (1 µM), in the presence or absence of LPS ( 10 ng/mL), or the corresponding vehicle (0.1% DMSO). […] After 2 h of incubation (37 °C), SEAP activity was determined spectrophotometrically as absorbance at 630 nm (BioTek Synergy microplate reader; Winooski, VT, USA). […]
# Cytokine production was determined with BD Cytometric Bead Array human inflammatory cytokines kit […]
structure (smiles),measurement,value
CCOC(=O)CC[C@@H](NC(=O)[C@@H](NC(=O)CNC(=O)/C=C/c1ccc(OC(=O)CC23CC4CC(CC(C4)C2)C3)c(OC)c1)C(C)C)C(=O)OCC [Compound 40],activation of RAW-Blue cells (NF-κB transcriptional response),activate RAW-Blue cells in a NOD2-dependent manner

# Reference: article PMC9377006, “Discovery of Desmuramylpeptide NOD2 Agonists with Single-Digit Nanomolar Potency” (ACS Medicinal Chemistry Letters, 2022)
